Among the data in ChEMBL document CHEMBL3508140 (2016) are AUC and Compound recovery values, retold here.

Data set [1] is described as follows: AUC values (0-48 h) of 7-deoxydoxorubicin aglycone in heart following single intravenous epirubicin at 10 mg.Kg-1 dose in female mouse bearing colon tumor. The format is ADME, organism-based, BALB/c. The settings on record: in vivo.
The nature of data set [2]: AUC values (0-48 h) of 7-deoxydoxorubicin aglycone in plasma following single intravenous epirubicin at 10 mg.Kg-1 dose in female mouse bearing colon tumor. The format is ADME, organism-based, BALB/c. The settings on record: in vivo.
The nature of data set [3]: AUC values (0-48 h) of 7-deoxydoxorubicin aglycone in heart following single intravenous doxorubicin at 10 mg.Kg-1 dose in female mouse bearing colon tumor. The arrangement: time < 48 hr, dose 10 mg.Kg-1, dosed compound id 2.46809e+06, dosed compound name Doxorubicin, gender F, regimen Single, route intravenous, sampling time 48 h. Conditions: in vivo. The format is ADME, organism-based, BALB/c.

A short description of data set [4]: Detection of 7-deoxy epirubicin-aglycone in plasma following single intravenous epirubicin at 10 mg.Kg-1 dose in female mouse bearing colon tumor. The format is ADME, organism-based, BALB/c. Conditions: in vivo.
Data set [5] in a line: Recovery of 7-deoxy doxorubicin-aglycone following intraperitoneal epirubicin at 4 mg.Kg-1 dose in mouse. The format is ADME, organism-based, CD-1, Plasma. The settings on record: in vivo, ip.
The nature of data set [6]: AUC values (0-48 h) of 7-deoxydoxorubicin aglycone in tumor following single intravenous doxorubicin at 10 mg.Kg-1 dose in female mouse bearing colon tumor. The format is ADME, organism-based, BALB/c, Neoplasm. More on the design: time < 48 hr, dose 10 mg.Kg-1, dosed compound id 2.46809e+06, dosed compound name Doxorubicin, gender F, regimen Single, route intravenous, sampling time 48 h. The settings on record: in vivo.

The nature of data set [7]: Recovery of 7-deoxy doxorubicin-aglycone following intravenous epirubicin at 4 mg.Kg-1 dose in rabbit. The format is ADME, organism-based, Oryctolagus cuniculus, New Zealand White, Plasma. Conditions: in vivo.
Data set [8] in a line: Detection of 7-deoxy doxorubicin-aglycone in heart following single intravenous doxorubicin at 10 mg.Kg-1 dose in female mouse bearing colon tumor. More on the design: dose 10 mg.Kg-1, dosed compound id 2.46809e+06, dosed compound name Doxorubicin, gender F, regimen Single, route intravenous, sampling time 48 h. The format is ADME, organism-based, BALB/c. Conditions: in vivo.

A short description of data set [9]: Detection of 7-deoxy doxorubicin-aglycone in plasma following single intravenous doxorubicin at 10 mg.Kg-1 dose in female mouse bearing colon tumor. Conditions: in vivo. The arrangement: dose 10 mg.Kg-1, dosed compound id 2.46809e+06, dosed compound name Doxorubicin, gender F, regimen Single, route intravenous, sampling time 48 h. The format is ADME, organism-based, BALB/c.

A short description of data set [10]: Detection of 7-deoxy epirubicin-aglycone in tumor following single intravenous epirubicin at 10 mg.Kg-1 dose in female mouse bearing colon tumor. The format is ADME, organism-based, BALB/c, Neoplasm. The settings on record: in vivo.
A short description of data set [11]: AUC values (0-48 h) of 7-deoxydoxorubicin aglycone in tumor following single intravenous epirubicin at 10 mg.Kg-1 dose in female mouse bearing colon tumor. The format is ADME, organism-based, BALB/c, Neoplasm. The settings on record: in vivo.
Data set [12] in a line: Detection of 7-deoxy doxorubicin-aglycone in tumor following single intravenous doxorubicin at 10 mg.Kg-1 dose in female mouse bearing colon tumor. The format is ADME, organism-based, BALB/c, Neoplasm. The arrangement: dose 10 mg.Kg-1, dosed compound id 2.46809e+06, dosed compound name Doxorubicin, gender F, regimen Single, route intravenous, sampling time 48 h. The settings on record: in vivo.

Data set [13] is described as follows: Recovery of 7-deoxy doxorubicin-aglycone following intraperitoneal epirubicin at 4 mg.Kg-1 dose in hamster. The format is ADME, organism-based, Cricetulus griseus, Plasma. The settings on record: chinese hamster, in vivo, ip.
A short description of data set [14]: Recovery of 7-deoxy doxorubicin-aglycone following intravenous epirubicin at 4 mg.Kg-1 dose in rat. The format is ADME, organism-based, SD, Plasma. The settings on record: in vivo.
A short description of data set [15]: AUC values (0-48 h) of 7-deoxydoxorubicin aglycone in plasma following single intravenous doxorubicin at 10 mg.Kg-1 dose in female mouse bearing colon tumor. The format is ADME, organism-based, BALB/c. More on the design: time < 48 hr, dose 10 mg.Kg-1, dosed compound id 2.46809e+06, dosed compound name Doxorubicin, gender F, regimen Single, route intravenous, sampling time 48 h. The settings on record: in vivo.

Data set [16] is described as follows: Detection of 7-deoxy epirubicin-aglycone in heart following single intravenous epirubicin at 10 mg.Kg-1 dose in female mouse bearing colon tumor. The format is ADME, organism-based, BALB/c. The settings on record: in vivo.
Data set [17] in a line: Recovery of 7-deoxy doxorubicin-aglycone following intravenous epirubicin at 1.5 mg.Kg-1 dose in man. The format is ADME, organism-based, Plasma. The settings on record: human, in vivo.

`COc1cccc2c1C(=O)c1c(O)c3c(c(O)c1C2=O)C[C@@](O)(C(=O)CO)CC3`: the AUC in [1] was found to be 49 nmol·min/g; in data set [2] it was 1.6 nmol·min/mL; in [3], 152 nmol·min/g; in [6] it was 135 nmol·min/g; in data set [11], 11 nmol·min/g; in data set [15], 4.1 nmol·min/mL. Besides, the Compound recovery result is reported as “OUTCOME = Observed” in data set [4]; 0 10^-9M in data set [5]; 0 10^-9M in data set [7]; “OUTCOME = Observed” in data set [8]; “OUTCOME = Observed” in data set [9]; “OUTCOME = Observed” in data set [10]. Moreover, the Compound recovery result in data set [12] is listed as “OUTCOME = Observed”; in [13], 1.3 10^-9M; in data set [14] it was 0 10^-9M; in [16] it was “OUTCOME = Observed”; in data set [17], 14 10^-9M.
